Test results reported in patent US20100029702A1, “Method For Identification of Compound Having Anti-Anxiety Effect” (priority 2006, published 2010).

Legend:
7tmHR = target: T1, 7tmHR (Homo sapiens, UniProt O60241); test: Changes in intracellular Ca2+ concentration in 7tmHR stably-expressing strain; type: cell-based
T1 construct: a vector expressing each full-length cDNA clone was constructed; expressed in transfected cells; host or cells: CHO-K1, 7tmHR/pcDNA3.1
Description: (§1) The 7tmHR stably-expressing strain and the hk01941 stably-expressing strain were prepared by transfecting the 7tmHR-expressing vector (7tmHR/pcDNA3.1) and the hk01941-expressing vector (hk01941/pcDNA3.1), respectively, into a CHO-K1 cell strain. Specifically, the expression vector was mixed with Lipofectamine 2000, (may be referred to as LF2000, Invitrogen) (4 μg DNA/250 μL of DMEM/F12 medium+10 μL of LF2000/250 μL DMEM/F12 medium) and added the CHO-K1 strain (2 mL medium/well) cultured in a 6-well plate to be transfected thereinto. On the following day, cells were recovered and seeded in a 96-well plate at cell density of 1 cell/well, cultured in a selective medium containing G418 (400 μg/mL) (DMEM/F 12 medium containing 10% FCS), and screened for expression cell strains. […]
(§2) Changes in the intracellular calcium (Ca^2+) concentration induced by CCK-8S were measured by a method similar to the method described in Example 5 using the 7tmHR stably-expressing strain and the hk01941 stably-expressing strain prepared in Example 7. […]
(§3) Cells were seeded in a 96-well plate (a plate with a black wall and a transparent bottom) at a cell count of 3×10^4/100 μL of medium/well and cultured overnight at 37° C. in a 5% CO2 incubator. […] After reaction, changes over time in the fluorescence intensity in each well after addition of CCK-8S were measured using the FLEX station (Molecular Device). […]

hk01941 = target: T2, hk01941 (Homo sapiens, UniProt O60241, DEL308-417); test: Changes in intracellular Ca2+ concentration in hk01941 stably-expressing strain; type: cell-based
T2 construct: a vector expressing each full-length cDNA clone was constructed; expressed in transfected cells; host or cells: CHO-K1, hk01941/pcDNA3.1
T2 sequence (O60241 with tags, fused parts or gaps DEL308-417): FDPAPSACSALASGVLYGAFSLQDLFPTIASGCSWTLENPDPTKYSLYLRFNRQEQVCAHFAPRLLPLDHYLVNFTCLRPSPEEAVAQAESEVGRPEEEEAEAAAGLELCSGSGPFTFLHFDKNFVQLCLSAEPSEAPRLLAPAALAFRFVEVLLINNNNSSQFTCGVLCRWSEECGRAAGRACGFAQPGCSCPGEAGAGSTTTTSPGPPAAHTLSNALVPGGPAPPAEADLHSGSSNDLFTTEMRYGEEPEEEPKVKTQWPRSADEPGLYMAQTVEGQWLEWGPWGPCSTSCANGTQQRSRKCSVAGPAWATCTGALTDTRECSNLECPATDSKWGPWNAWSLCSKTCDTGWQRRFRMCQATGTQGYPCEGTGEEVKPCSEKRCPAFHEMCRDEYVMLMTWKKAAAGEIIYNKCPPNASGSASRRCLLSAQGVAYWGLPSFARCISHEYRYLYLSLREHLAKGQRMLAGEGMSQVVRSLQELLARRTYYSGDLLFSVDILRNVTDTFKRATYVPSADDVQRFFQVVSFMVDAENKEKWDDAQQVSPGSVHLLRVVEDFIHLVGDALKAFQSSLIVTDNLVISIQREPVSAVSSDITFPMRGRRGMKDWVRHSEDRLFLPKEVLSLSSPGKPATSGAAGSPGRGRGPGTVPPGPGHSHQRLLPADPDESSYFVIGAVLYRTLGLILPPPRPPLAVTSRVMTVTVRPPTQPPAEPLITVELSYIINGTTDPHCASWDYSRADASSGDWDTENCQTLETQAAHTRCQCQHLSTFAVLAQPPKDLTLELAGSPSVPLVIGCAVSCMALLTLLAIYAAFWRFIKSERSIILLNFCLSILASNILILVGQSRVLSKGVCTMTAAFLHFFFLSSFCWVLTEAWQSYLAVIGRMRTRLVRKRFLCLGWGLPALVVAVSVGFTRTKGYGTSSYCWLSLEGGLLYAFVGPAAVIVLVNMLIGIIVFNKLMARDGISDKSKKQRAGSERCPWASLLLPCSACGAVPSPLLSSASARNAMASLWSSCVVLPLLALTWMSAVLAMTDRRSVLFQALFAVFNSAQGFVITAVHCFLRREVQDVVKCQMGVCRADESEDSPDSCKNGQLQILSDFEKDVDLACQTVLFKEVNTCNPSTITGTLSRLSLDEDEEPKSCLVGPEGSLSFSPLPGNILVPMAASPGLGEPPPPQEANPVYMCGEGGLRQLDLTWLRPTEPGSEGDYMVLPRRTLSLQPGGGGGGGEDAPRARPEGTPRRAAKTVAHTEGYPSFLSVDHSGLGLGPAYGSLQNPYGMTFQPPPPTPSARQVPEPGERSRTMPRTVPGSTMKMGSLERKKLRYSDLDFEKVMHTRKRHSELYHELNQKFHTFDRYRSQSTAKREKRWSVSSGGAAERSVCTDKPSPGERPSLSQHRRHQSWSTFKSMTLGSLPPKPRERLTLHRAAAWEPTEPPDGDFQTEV
Description: as §1, §2, §3

T1 sequence (O60241 13-1585): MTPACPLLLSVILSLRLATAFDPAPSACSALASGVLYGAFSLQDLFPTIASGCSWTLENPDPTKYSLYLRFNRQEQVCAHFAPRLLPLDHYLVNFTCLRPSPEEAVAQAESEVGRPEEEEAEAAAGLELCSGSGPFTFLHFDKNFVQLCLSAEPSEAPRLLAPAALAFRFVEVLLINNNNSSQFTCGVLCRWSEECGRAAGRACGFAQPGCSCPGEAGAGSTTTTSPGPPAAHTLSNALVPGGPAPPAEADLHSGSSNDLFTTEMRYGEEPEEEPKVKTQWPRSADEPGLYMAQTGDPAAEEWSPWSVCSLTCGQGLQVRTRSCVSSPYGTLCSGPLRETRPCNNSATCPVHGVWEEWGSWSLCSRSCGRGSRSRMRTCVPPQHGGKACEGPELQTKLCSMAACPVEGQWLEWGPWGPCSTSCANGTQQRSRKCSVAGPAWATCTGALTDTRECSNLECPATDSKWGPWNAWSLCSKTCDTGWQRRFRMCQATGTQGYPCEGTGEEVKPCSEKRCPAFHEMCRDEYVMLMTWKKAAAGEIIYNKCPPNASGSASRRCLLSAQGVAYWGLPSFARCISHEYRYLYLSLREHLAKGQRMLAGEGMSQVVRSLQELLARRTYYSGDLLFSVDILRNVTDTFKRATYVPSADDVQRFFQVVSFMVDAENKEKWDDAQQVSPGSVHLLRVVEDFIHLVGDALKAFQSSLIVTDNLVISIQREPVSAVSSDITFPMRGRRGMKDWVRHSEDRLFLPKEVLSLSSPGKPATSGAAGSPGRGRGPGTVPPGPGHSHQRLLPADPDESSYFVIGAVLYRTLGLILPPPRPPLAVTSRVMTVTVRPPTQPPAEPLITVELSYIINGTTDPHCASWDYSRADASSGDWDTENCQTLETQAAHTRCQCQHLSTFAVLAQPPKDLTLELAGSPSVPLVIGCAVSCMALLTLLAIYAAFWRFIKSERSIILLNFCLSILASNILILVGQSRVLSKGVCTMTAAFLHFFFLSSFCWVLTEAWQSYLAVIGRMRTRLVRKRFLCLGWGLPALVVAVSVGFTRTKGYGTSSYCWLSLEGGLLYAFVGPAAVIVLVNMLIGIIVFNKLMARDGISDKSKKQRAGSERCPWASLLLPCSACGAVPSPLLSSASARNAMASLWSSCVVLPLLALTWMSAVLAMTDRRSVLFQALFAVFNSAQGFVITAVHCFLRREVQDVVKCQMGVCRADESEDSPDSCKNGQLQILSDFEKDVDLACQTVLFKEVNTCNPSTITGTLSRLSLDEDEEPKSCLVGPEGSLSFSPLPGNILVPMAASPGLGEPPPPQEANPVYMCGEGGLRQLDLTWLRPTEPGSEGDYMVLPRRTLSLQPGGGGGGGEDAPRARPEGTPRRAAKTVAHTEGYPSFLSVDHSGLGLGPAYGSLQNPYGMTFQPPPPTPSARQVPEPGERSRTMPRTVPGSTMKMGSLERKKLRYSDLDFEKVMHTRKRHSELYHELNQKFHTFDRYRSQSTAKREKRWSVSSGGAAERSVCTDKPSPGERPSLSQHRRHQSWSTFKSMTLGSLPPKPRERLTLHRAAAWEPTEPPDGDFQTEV

Compound | Change in intracellular Ca2+ concentration (fluorescence intensity) (7tmHR; 7tmHR/CHO#6, A23187 20 μM, positive control) | Change in intracellular Ca2+ concentration (fluorescence intensity) (hk01941; hk01941/CHO#13, A23187 20 μM, positive control) | Change in intracellular Ca2+ concentration after addition of CCK-8S (7tmHR; 7tmHR stably-expressing strain, CCK-8S 10 pM to 1 μM, figure at 1 nM) | Change in intracellular Ca2+ concentration after addition of CCK-8S (hk01941; hk01941 stably-expressing strain, CCK-8S 10 pM to 1 μM, figure at 1 nM)
CNc1ccc2oc(C[C@H]3O[C@@]4(CC[C@H]3C)O[C@H]([C@H](C)C(=O)c3ccc[nH]3)[C@H](C)C[C@H]4C)nc2c1C(=O)O [A23187] | increased | increased |  | 
cholecystokinin octapeptide sulfated form [CCK-8S] |  |  | increase | increase
